This passage reports mutagenic call and call results from PubChem BioAssay AID1259408 (Genetic Toxicology Data Bank (GENE-TOX), 2018).

Active and inactive are the calls of the source. How the calls were made is not given here.

The subject of the data set is GENE-TOX genotoxicity assays, various organisms and cells. Put plainly: GENE-TOX mutagenicity studies. The conditions noted are these: for call: Assay Type: In vivo carcinogenicity studies.
Where [1] appears, read: Species/Cell Type: Rodents, Sex: Male, Assay Type: Dominant lethal test, Assay Code: DLT+, Evaluation Type: Evaluation A (Pre-1980).
Setting [2] is: Species/Cell Type: Salmonella typhimurium (one or more of the five standard strains: TA98, TA100, TA1535, TA1537, and TA1538), Assay Type: Histidine reverse gene mutation, Ames assay, Assay Code: SAL+, Evaluation Type: Evaluation A (Pre-1980).
Where [3] appears, read: Species/Cell Type: Chinese hamster lung (V79) cells, Assay Type: Forward gene mutation at the HPRT or ouabain locus, Assay Code: V79+, Evaluation Type: Evaluation A (Pre-1980).
Setting [4] is: Species/Cell Type: Bacillus subtilis (H17 vs M45), Assay Type: Rec-assay, spot test, DNA effects (bacterial DNA repair), Assay Code: REWT, Evaluation Type: Evaluation A (Pre-1980).
Setting [5] is: Species/Cell Type: Human diploid fibroblasts, Assay Type: Unscheduled DNA synthesis (UDS) in vitro, DNA effects, Assay Code: UDH-, Evaluation Type: Evaluation A (Pre-1980).
[6] abbreviates: Species/Cell Type: Nonhuman, Assay Type: Sister-chromatid exchange (SCE) in vitro, Assay Code: SC2+, Evaluation Type: Evaluation B (Post-1980).
The mark [7] stands for this setting: Species/Cell Type: Salmonella typhimurium (one or more of the five standard strains: TA98, TA100, TA1535, TA1537, and TA1538), Assay Type: Histidine reverse gene mutation, Ames assay, Assay Code: SAL-, Evaluation Type: Evaluation A (Pre-1980).
The mark [8] stands for this setting: Species/Cell Type: Saccharomyces cerevisiae, Assay Type: Forward and reverse gene mutation, mitotic recombination and gene conversion, host-mediated assay, Assay Code: HME+, Evaluation Type: Evaluation A (Pre-1980).
Setting [9] is: Species/Cell Type: Saccharomyces cerevisiae, Assay Type: Mitotic recombination or gene conversion, Assay Code: YEC+, Evaluation Type: Evaluation A (Pre-1980).
Where [10] appears, read: Species/Cell Type: Drosophila melanogaster, Assay Type: Sex-linked recessive lethal gene mutation, Assay Code: SRL+, Evaluation Type: Evaluation A (Pre-1980).
[11] abbreviates: Species/Cell Type: Nonhuman, Assay Code: CCG+L, Evaluation Type: Evaluation A (Pre-1980).

In the case of `C[C@H](CC[C@H](C)OS(C)(=O)=O)OS(C)(=O)=O`, the mutagenic call under setting [1] was “active; positive”.

Regarding `O=C(O)Cc1ccccc1[N+](=O)[O-]`, the mutagenic call under setting [2] is “active; positive”.

As to `CC(CN(CC(=O)O)CC(=O)O)N(CC(=O)O)CC(=O)O` (centres undefined), the mutagenic call under setting [3] is “active; positive”.

As for `O=Nc1ccc(NNc2ccccc2)cc1`, the mutagenic call under setting [2] is “active; positive”.

On to `O=S(=O)(O)CCS`, for which the mutagenic call (Species/Cell Type: Human lymphocytes, Assay Type: Sister-chromatid exchange (SCE) in vitro, Assay Code: SCLT, Evaluation Type: Evaluation B (Post-1980)) is “no conclusion” and the mutagenic call (Species/Cell Type: Human, Assay Type: Sister-chromatid exchange (SCE) in vitro, Assay Code: SC1T, Evaluation Type: Evaluation B (Post-1980)) is given as “no conclusion”.

As for `CC1=CC2=C(C=O)C(=O)[C@](C)(O)[C@@H](O)C2=CO1`, the mutagenic call under setting [2] was “active; positive”.

With `CCOP(=S)(OCC)Oc1cc(C)nc(C(C)C)n1`, the mutagenic call is, setting by setting: under setting [4], “no conclusion”; (Species/Cell Type: Escherichia coli WP2 UVRA, Assay Type: Tryptophan reverse gene mutation, Assay Code: WPU-*, Activation: With metabolic activation, Evaluation Type: Evaluation A (Pre-1980)) “inactive; negative”; (Species/Cell Type: Escherichia coli polA (W3119 vs P3478), Assay Type: Rec-assay, DNA effects (bacterial DNA repair), Assay Code: RE1T, Evaluation Type: Evaluation A (Pre-1980)) “no conclusion”; under setting [5], “inactive; negative”; (Species/Cell Type: Human, Assay Type: Sister-chromatid exchange (SCE) in vitro, Assay Code: SC1+, Evaluation Type: Evaluation B (Post-1980)) “active; positive”; under setting [6], “active; positive”. Besides, the mutagenic call (Species/Cell Type: Saccharomyces cerevisiae, Assay Type: Mitotic recombination or gene conversion, Assay Code: YEH-, Evaluation Type: Evaluation A (Pre-1980)) was “inactive; negative” and the mutagenic call under setting [7] was “inactive; negative”. For the same compound, where the note is “Species/Cell Type: Nonhuman, Assay Code: CCG-, Evaluation Type: Evaluation A (Pre-1980)”, the call is “inactive; negative”.

For `Cl/C=C/CCl`, the mutagenic call under setting [2] was “active; positive”.

For the compound `COc1ccc2nc3cc(Cl)ccc3c(NCCCNCCCl)c2c1`, the mutagenic call is “active; positive” (Species/Cell Type: Chinese hamster ovary (CHO) cells, Assay Type: Forward gene mutation at the HPRT locus, Assay Code: CHO+D, Dose Response: With dose response, Evaluation Type: Evaluation A (Pre-1980)); “inactive; negative” under setting [5]; “active; positive” under setting [8]; “active; positive” under setting [9]; “active; positive” under setting [2]. Further, for the setting “Species/Cell Type: Nonhuman, Assay Code: CCGT, Evaluation Type: Evaluation A (Pre-1980)”, the call is “no conclusion”.

Turning to `C#CC(OC(=O)NC1CCCCC1)(c1ccccc1)c1ccccc1`, the mutagenic call reads like this: (Species/Cell Type: Human diploid fibroblasts, Assay Type: Unscheduled DNA synthesis (UDS) in vitro, DNA effects, Assay Code: UDHT, Evaluation Type: Evaluation A (Pre-1980)) “no conclusion”; under setting [2], “active; positive”.

Consider `[Cl][Pb][Cl]`, for which, for the setting “Species/Cell Type: Bacillus subtilis (H17 vs M45), Assay Type: Rec-assay, spot test, DNA effects (bacterial DNA repair), Assay Code: REW-, Evaluation Type: Evaluation A (Pre-1980)”, the mutagenic call is “inactive; negative”.

For `O=S(=O)(O)c1ccc2c(N=Nc3ccc(S(=O)(=O)O)c4ccccc34)c(O)c(S(=O)(=O)O)cc2c1`, the mutagenic call is “no conclusion” under setting [4]; “no conclusion” (Species/Cell Type: Bacillus subtilis (H17 vs M45T), Assay Type: Rec-assay, spot test, DNA effects (bacterial DNA repair), Assay Code: REXT, Evaluation Type: Evaluation A (Pre-1980)); “inactive; negative” (Species/Cell Type: Rodents, Sex: Male, Assay Type: Dominant lethal test, Assay Code: DLT-, Evaluation Type: Evaluation A (Pre-1980)); “inactive; negative” (Species/Cell Type: Saccharomyces cerevisiae, Assay Type: Mitotic recombination or gene conversion, Assay Code: YEC-, Evaluation Type: Evaluation A (Pre-1980)); “inactive; negative” under setting [7]; “inactive; negative” (Species/Cell Type: Syrian hamster embryo (SA7/SHE) cells, Assay Type: Cell transformation, viral enhanced, Assay Code: CT7-, Evaluation Type: Evaluation A (Pre-1980)).

Take `CC(=O)Nc1ccc(N=NN(C)C)cc1`: the mutagenic call is, setting by setting: under setting [10], “active; positive”; (Species/Cell Type: Saccharomyces cerevisiae, Assay Type: Mitotic recombination or gene conversion, Assay Code: YEH+/-*, Activation: With metabolic activation, Evaluation Type: Evaluation A (Pre-1980)) “inactive; positive without activation, negative with activation”.

As for `CCCCCN(C)N=O`, the mutagenic call (Species/Cell Type: Escherichia coli polA (W3119 vs P3478), Assay Type: Rec-assay, DNA effects (bacterial DNA repair), Assay Code: RE1+, Evaluation Type: Evaluation A (Pre-1980)) was “active; positive”.

As to `COc1ccc(/C=C/Cl)cc1`, the mutagenic call is “active; positive” (Species/Cell Type: Human lymphocytes, Assay Type: Sister-chromatid exchange (SCE) in vitro, Assay Code: SCL+D, Dose Response: With dose response, Evaluation Type: Evaluation B (Post-1980)) and “active; positive” (Species/Cell Type: Human, Assay Type: Sister-chromatid exchange (SCE) in vitro, Assay Code: SC1+D, Dose Response: With dose response, Evaluation Type: Evaluation B (Post-1980)).

Take `O=S(=O)(O)c1cc(S(=O)(=O)O)c2c(N=Nc3ccccc3)c(O)ccc2c1`: the mutagenic call under setting [4] was “no conclusion”.

For `ClC=C(Cl)Cl`, the mutagenic call was “inactive; negative” (Species/Cell Type: Drosophila melanogaster, Assay Type: Sex-linked recessive lethal gene mutation, Assay Code: SRL-, Evaluation Type: Evaluation A (Pre-1980)); “active; positive” (Species/Cell Type: Fischer rat embryo (RLV/1706) cells, Assay Type: Cell transformation, viral enhanced, Assay Code: CTR+, Evaluation Type: Evaluation A (Pre-1980)); “active; positive” (Species/Cell Type: Mammalian polychromatic erythrocytes, Assay Type: Micronucleus test, chromosome aberrations, Assay Code: MNT+, Evaluation Type: Evaluation B (Post-1980)); “active; positive” (Species/Cell Type: Mouse, Sex: Female, Assay Type: Spot test, gene mutation, Assay Code: MST+, Evaluation Type: Evaluation A (Pre-1980)); “active; positive” (Species/Cell Type: Mouse, Sex: Male, Assay Type: Sperm morphology, Assay Code: SPI+, Evaluation Type: Evaluation A (Pre-1980)); “no conclusion” (Species/Cell Type: Nonhuman, Assay Type: Sister-chromatid exchange (SCE) in vitro, Assay Code: SC2T, Evaluation Type: Evaluation B (Post-1980)). The mutagenic call reads like this: under setting [8], “active; positive”; under setting [9], “active; positive”; (Species/Cell Type: Saccharomyces cerevisiae, Assay Type: Mitotic recombination or gene conversion, Assay Code: YEH+, Evaluation Type: Evaluation A (Pre-1980)) “active; positive”; (Species/Cell Type: Saccharomyces cerevisiae, Assay Type: Reverse gene mutation, Assay Code: YER+, Evaluation Type: Evaluation A (Pre-1980)) “active; positive”; (Species/Cell Type: Salmonella typhimurium (one or more of the five standard strains: TA98, TA100, TA1535, TA1537, and TA1538), Assay Type: Histidine reverse gene mutation, Ames assay, Assay Code: SALT, Evaluation Type: Evaluation A (Pre-1980)) “no conclusion”; (Species/Cell Type: Tradescantia species, Assay Type: Gene mutation, Assay Code: TRM+, Evaluation Type: Evaluation A (Pre-1980)) “active; positive”. Also, the call under setting [11] is “active; positive”.

Turning to `Clc1c(N2CC2)nc(N2CC2)nc1N1CC1`, the mutagenic call (Species/Cell Type: Aspergillus nidulans, Assay Type: Reverse gene mutation, Assay Code: ASR+, Evaluation Type: Evaluation A (Pre-1980)) was “active; positive”.

With `CCCCC(CC)COC(=O)c1ccccc1C(=O)OCC(CC)CCCC` (centres undefined), the call (Species/Cell Type: Nonhuman, Assay Code: CCG+, Evaluation Type: Evaluation A (Pre-1980)) is “active; positive”. Moreover, the mutagenic call is “no conclusion” (Species/Cell Type: Nonhuman, Assay Type: Sister-chromatid exchange (SCE) in vitro, Assay Code: SC2T, Evaluation Type: Evaluation A (Pre-1980)) and “active; positive” under setting [1].

Consider `NNc1nnc(NN)c2ccccc12`, for which the mutagenic call (Species/Cell Type: Nonhuman, Assay Type: Sister-chromatid exchange (SCE) in vivo, Assay Code: SC3+, Evaluation Type: Evaluation B (Post-1980)) was “active; positive”.

For `c1ccc2c(c1)-c1cc3ccccc3cc1[C@H]1O[C@@H]21`, the mutagenic call was “active; positive” under setting [3]; “active; positive” under setting [10]; “active; positive” (Species/Cell Type: Human diploid fibroblasts, Assay Type: Unscheduled DNA synthesis (UDS) in vitro, DNA effects, Assay Code: UDH+D, Dose Response: With dose response, Evaluation Type: Evaluation A (Pre-1980)); “active; positive” (Species/Cell Type: Mouse prostate cells, Assay Type: Cell transformation, Assay Code: CTM+, Evaluation Type: Evaluation A (Pre-1980)); “active; positive” under setting [6]; “active; positive” under setting [2]. Further, the mutagenic call (Species/Cell Type: Syrian hamster embryo (SHE) cells, Assay Type: Cell transformation, clonal assay, Assay Code: CTC+, Evaluation Type: Evaluation A (Pre-1980)) was “active; positive”. Besides, under setting [11], the call is “active; positive”.
